In the assay the test system is A/Kawasaki/UTK-4/09 (H1N1). Type of assay: cell-based, influenza A virus (H1N1).

For the compound `CCOC(=O)C1=C[C@@H](OC(CC)CC)[C@H](NC(C)=O)[C@@H](N)C1` [oseltamivir], the “susceptibility of virus in cell culture (in words)” value is “resistance”.
